US6664231B1, “Anti-fungal peptides” (priority 1993, dated 2003)
Like-named read-outs stand apart in the source and are kept apart here. Square brackets hold non-standard residues; d marks the D form. Peptide text beside a SMILES is read from it. Phe(4-NH2) = Nc1ccc(C[C@H](N)C(=O)O)cc1; Dab = NCC[C@H](N)C(=O)O; Aoc = NCCCCCCCC(=O)O

Columns and labels:
[1] = test system: C. albicans (CA-1, Strain SLU-1); assay: Radial diffusion assay; assay type: cell-based, Candida albicans; settings: pmoles of peptide added to well to achieve a 30 mm^2 zone, PROBIT analysis; crude or purified (P′) peptide
Procedure, shortened: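 Peptides, serially diluted 2-fold in D-PBS (top ~1 mg/mL), diffused 3 h at 37° C into pH 7.4 phosphate-buffered agarose seeded with 1×10^6 CFU/mL yeast, before overnight growth under a 6% Sabouraud overlayer. Net inhibition zones measured after Coomassie staining; PROBIT fit of log pmol vs area gave pmol for 30 mm^2.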

[2] = Serum stability, anti-fungal activity after serum incubation by radial diffusion bioassay; assay type: in vitro ADME, rat or human serum; settings: Activity in Serum t ½ (hr.)
Experimental: For these serum stability experiments, peptides were prepared by solid phase peptide sythesis and purified to 94% or greater purity as described in Example 1. Blood was collected from metaphane anesthesized rats by aortic bleed into Vacutainer™ tubes and allowed to clot at room temperature for approximately 30 minutes, then centrifuged at 3000 rpm (about 1000×g) for 10 minutes at room temperature and the serum aspirated. In addition, frozen human serum (North American Biologics, Inc., Miami, Fla., cat. no. 2140, lot no. 94115) was thawed at room temperature and filtered through a 0.45 μm membrane before use.
A 1 mg/mL solution of an exemplary XMP peptide to be tested was added to an equal volume of either rat or human serum described above and maintained at 37° C. At 0, 1, 2, and 4 hours, 100 μL were removed and processed by solid phase extraction for HPLC analysis as follows. Serum samples were prepared for HPLC using C-18 Sep-Pak cartridges (1 mL cartridge with 100 mg of sorbent, Waters Corp., Milford, Mass.). One hundred μL of serum sample were added to an equal volume of 1% TFA and mixed for 30 seconds on a Vortex mixer. The sample was then applied to a C-18 Sep-Pak cartridge that had been conditioned by washing with 1 mL of methanol followed by 1 mL Milli-Q water. Weakly reed components were eluted by washing with 1 mL of 0. 1% TFA. The bound peptide was eluted with two volumes of 250 μL 80% acetonitrile/0.065% TFA.
The peptides identified and purified after serum incubation as described above were subjected to N-terminal peptide sequencing performed on an Applied Biosystems Model 477A/120A sequencer and to electrospray ionization mass spectrometry (ESI/MS) performed using a VG Biotech Bio-Q Mass Spectrometer. In addition, the peptides identified and purified after serum incubation as described above were also tested for their anti-fungal activity in a radial diffusion bioassay with Candida albicans SLU-1 strain as described in Example 2.

[3] = test system: mouse RAW 264.7 cells incubated with E. coli O113 LPS; settings: RAW 264.7 cells with E. coli O113 LPS; concentration reversing LPS growth inhibition by 50%
Experimental: (§1) An in vitro LPS neutralization screening assay for evaluation of Domain III derived peptides was developed (as described in co-owned and co-pending U.S. patent application Ser. No. 08/306,473) which provides both a measure of efficacy of each peptide (EC50) and of the toxicity/growth inhibition of each peptide (IC50).
(§2) The cells were counted and their concentration adjusted to 2×10^5 cells/mL and 100 μL aliquots were added to each well of a 96-well microtitre plate. […] This incubation was performed in the absence or presence of peptides in varying concentrations between 25 ng/mL and 50 μg/mL. […] Cell proliferation was quantitatively measured by the addition of 1 μCi/well [^3H]-thymidine 5 hours after the time of initiation of the assay. After the 15-hour incubation, labeled cells were harvested onto glass fiber filters with a cell harvester (Inotech Biosystems, INB-384, Sample Processing and Filter Counting System, Lansing, Mich.).

mouse RAW 264.7 cells = test system: mouse RAW 264.7 cells
Experimental: as §1, §2

[4] = RAW 264.7 cell growth inhibited by 50%

| Molecule | C. albicans pmol/30 mm^2 zone [1] | half-life at 0.5 mg/mL [2] | In Vitro LPS Neutralization EC50 [3] | IC50 (toxicity/growth inhibition of peptide) (mouse RAW 264.7 cells) | IC50 (toxicity/growth inhibition of peptide) (mouse RAW 264.7 cells; [4]) |
| --- | --- | --- | --- | --- | --- |
| CC[C@H](C)[C@H](NC(=O)[C@H](CC(C)C)NC(=O)[C@H](Cc1ccc(N)cc1)NC(=O)CNC(=O)[C@@H](NC(=O)[C@H](CCCCN)NC(=O)[C@H](CO)NC(=O)[C@@H](N)CCCCN)C(C)C)C(=O)N[C@@H](CCC(N)=O)C(=O)N[C@@H](CC(C)C)C(=O)N[C@@H](Cc1ccccc1)C(=O)N[C@@H](Cc1c[nH]cn1)C(=O)N[C@@H](CCCCN)C(=O)N[C@@H](CCCCN)C(N)=O [XMP.133] (H-KSKVG[Phe(4-NH2)]LIQLFHKK-NH2) | 284 pmol/30 mm^2 zone | 14 h | – | – | – |
| H-KKWLIQLFHKP-NH2 [XMP.358] | 550 pmol/30 mm^2 zone | 1.6 h | – | – | – |
| H-KKKWLIQLKK-NH2 [XMP.348] | 284 pmol/30 mm^2 zone | 5.5 h | – | – | – |
| Ac-PWLIQLFHKK-NH2 [XMP.356] | 550 pmol/30 mm^2 zone | 0.9 h | – | – | – |
| H-KKWLIQLFKK-NH2 [XMP.351] | 385 pmol/30 mm^2 zone | 0.4 h | – | – | – |
| H-KKLLLLLKK-NH2 [XMP.385] | 127 pmol/30 mm^2 zone | 2.7 h | – | – | – |
| CC[C@H](C)[C@H](NC(=O)[C@H](CC(C)C)NC(=O)[C@H](Cc1c[nH]c2ccccc12)NC(=O)[C@H](CCCN)NC(=O)[C@@H](N)CCCN)C(=O)N[C@@H](CCC(N)=O)C(=O)N[C@@H](CC(C)C)C(=O)N[C@@H](CCCN)C(=O)N[C@@H](CCCN)C(N)=O [XMP.338] | 1,194 pmol/30 mm^2 zone | 4.7 h | – | – | – |
| H-KKLQLLLKK-NH2 [XMP.381] | 391 pmol/30 mm^2 zone | 0.8 h | – | – | – |
| H-KKKWAIQLKK-NH2 [XMP.377] | 146 pmol/30 mm^2 zone | 1.8 h | – | – | – |
| CC[C@H](C)[C@H](NC(=O)[C@H](CC(C)C)NC(=O)[C@H](Cc1c[nH]c2ccccc12)NC(=O)[C@@H](N)CCCCN)C(=O)N[C@@H](CCN)C(=O)N[C@@H](CC(C)C)C(=O)N[C@@H](Cc1ccccc1)C(=O)N[C@@H](Cc1c[nH]cn1)C(=O)N[C@@H](CCCCN)C(=O)N[C@@H](CCCCN)C(N)=O [XMP.371P] (H-KWLI[Dab]LFHKK-NH2) | – | – | NA (NA for EC50 means no evidence neutralization of LPS at up to 50 μg/ml) | >25 µg/mL | – |
| H-KKLLQLLKK-NH2 [XMP.382P] | – | – | NA (NA for EC50 means no evidence neutralization of LPS at up to 50 μg/ml) | – | NA (NA for IC50 means no evidence of decreased RAW cell growth at up to 50 μg/ml) |
| CC[C@@H](C)[C@@H](NC(=O)[C@@H](CC(C)C)NC(=O)[C@@H](Cc1c[nH]c2ccccc12)NC(=O)[C@@H](CCCCN)NC(=O)CCCCCCCN)C(=O)N[C@H](CCC(N)=O)C(=O)N[C@H](CC(C)C)C(=O)N[C@H](Cc1ccccc1)C(=O)N[C@H](Cc1c[nH]cn1)C(=O)N[C@H](CCCCN)C(=O)N[C@H](CCCCN)C(N)=O [XMP.416] (H-[Aoc][dK][dW][dL][dI][dQ][dL][dF][dH][dK][dK]-NH2) | – | – | 4.67 ± 0.27 µg/mL | – | 24.41 ± 0.78 µg/mL |
| CC[C@@H](C)[C@@H](NC(=O)[C@@H](CCC(N)=O)NC(=O)[C@@H](CC(C)C)NC(=O)[C@H](N)CCCCN)C(=O)N[C@H](CC(C)C)C(=O)N[C@H](Cc1c[nH]c2ccccc12)C(=O)N[C@H](CCCCN)C(=O)N[C@H](CCCCN)C(N)=O [XMP.374P] | – | – | 13.97 ± 2.02 µg/mL | – | NA (NA for IC50 means no evidence of decreased RAW cell growth at up to 50 μg/ml) |
